In one experiment the target is κ opioid receptor (Homo sapiens (Human), UniProt P41145). Put plainly: κ-opioid receptor [35S]GTPγS functional assay, U-2 OS cells. Type of experiment: biochemical. To be noted: for Emax: relative to U69,593, U-2 OS cells. As to the method:
κ-Opioid Receptor Functional Assay Procedures: Functional [^35S]GTPγS binding assays were conducted as follows. κ opioid receptor membrane solution was prepared by sequentially adding final concentrations of 0.026 μg/μl κ membrane protein (in-house), 10 μg/mL saponin, 3 μM GDP and 0.20 nM [^35S]GTPγS to binding buffer (100 mM NaCl, 10 mM MgCl2, 20 mM HEPES, pH 7.4) on ice. The prepared membrane solution (190 μl/well) was transferred to 96-shallow well polypropylene plates containing 10 μl of 20× concentrated stock solutions of agonist prepared in DMSO. Plates were incubated for 30 min at a temperature of about 25° C. with shaking. Reactions were terminated by rapid filtration onto 96-well Unifilter GF/B filter plates (Perkin Elmer, Shelton, Conn.) using a 96-well tissue harvester (Packard) and followed by three filtration washes with 200 μl ice-cold binding buffer (10 mM NaH2PO4, 10 mM Na2HPO4, pH 7.4). Filter plates were subsequently dried at 50° C. for 2-3 hours. Fifty μl/well scintillation cocktail (Perkin Elmer, Shelton, Conn.) was added and plates were counted in a Packard Top-Count for 1 min/well.
κ-Opioid Receptor Functional Data: κ GTP EC50 is the concentration of a compound providing 50% of the maximal response for the compound at a κ receptor.
κ GTP Emax (%) is the maximal effect elicited by a compound relative to the effect elicited by U69,593.
(§1) The following TABLE 3 provides results on the activity response of certain Compounds of the Invention at the μ- and κ-opioid receptors determined as described above using U-2 OS cells.
(In general: GTPγS resists hydrolysis and so accumulates on activated G proteins.)

The target in another experiment is μ-opioid receptor (Homo sapiens (Human), UniProt P35372). Put plainly: μ-opioid receptor [35S]GTPγS functional assay, U-2 OS cells. Type of experiment: biochemical. The settings on record: for Emax: relative to DAMGO, U-2 OS cells. As to the method: μ-Opioid Receptor Functional Assay Procedures: [^35S]GTPγS functional assays were conducted using freshly thawed μ-receptor membranes prepared in-house from a cell line expressing recombinant μ opioid receptor in a HEK-293, CHO or U-2 OS cell background, or purchased from a commercial source (Perkin Elmer, Shelton, Conn.; or DiscovRx, Fremont, Calif.). Assay reactions were prepared by sequentially adding the following reagents to binding buffer (100 mM NaCl, 10 mM MgCl2, 20 mM HEPES, pH 7.4) on ice (final concentrations indicated): membrane protein (0.026 mg/mL), saponin ([…]), GDP ([…]) and [^35S]GTPγS (0.20 nM; Perkin Elmer, Shelton, Conn.). The prepared membrane solution (190 μl/well) was transferred to 96-shallow well polypropylene plates containing 10 μl of 20× concentrated stock solutions of the agonist [D-Ala^2, N-methyl-Phe^4 Gly-ol^5]-enkephalin (DAMGO) prepared in dimethyl sulfoxide (DMSO). Plates were incubated for 30 min at about 25° C. with shaking. Reactions were terminated by rapid filtration onto 96-well Unifilter GF/B filter plates (Perkin Elmer, Shelton, Conn.) using a 96-well tissue harvester (Perkin Elmer, Shelton, Conn.) followed by three filtration washes with 200 μl of ice-cold wash buffer (10 mM NaH2PO4, 10 mM Na2HPO4, pH 7.4). Filter plates were subsequently dried at 50° C. for 2-3 hours. BetaScint scintillation cocktail (Perkin Elmer, Shelton, Conn.) was added (50 μl/well) and plates were counted using a Packard Top-Count for 1 min/well. Data were analyzed using the sigmoidal dose-response curve fitting functions in GraphPad PRISM v. 3.0, or an in-house function for non-linear, sigmoidal dose-response curve-fitting.
μ-Opioid Receptor Functional Data: μ GTP EC50 is the concentration of a compound providing 50% of the maximal response for the compound at a μ-opioid receptor.
μ GTP Emax (%) is the maximal effect elicited by a compound relative to the effect elicited by DAMGO, a standard μ agonist. Generally, the μ GTP Emax (%) value measures the efficacy of a compound to treat or prevent pain or other Conditions.
as §1

Turning to `CCN1C(=O)N[C@]2(CC[C@@]3(O)[C@H]4Cc5ccc(O)cc5[C@@]3(CCN4CC3CC3)C2)C1=O` [Compound 45, (4S,4b′R,8a′S,9′R)-11′-(cyclopropylmethyl)-1-ethyl-3′,8a′-dihydroxy-8′,8a′,9′,10′-tetrahydro-5′H,7′H-spiro[imidazolidine-4,6′-[9,4b](epiminoethano)phenantrene]-2,5-dione], the EC50 (in general, the concentration giving half of the maximal effect) at κ opioid receptor came to 0.00434 ± 0.00074 µM; at μ-opioid receptor, 0.00647 ± 0.00069 µM. The values for the Emax at κ opioid receptor and at μ-opioid receptor were 96.3 ± 1.33% and 45.9 ± 3.04%, respectively.

With `O=C1NC(=O)[C@@]2(CC[C@@]3(O)[C@H]4Cc5ccc(O)cc5[C@@]3(CCN4CC3CC3)C2)N1CC(F)(F)F` [Compound 64, (4S,4b′R,8a′S,9′R)-11′-(cyclopropylmethyl)-3′,8a′-dihydroxy-3-(2,2,2-trifluoroethyl)-8′,8a′,9′,10′-tetrahydro-5′H,7′H-spiro[imidazolidine-4,6′-[9,4b](epiminoethano)-phenantrene]-2,5-dione], at κ opioid receptor, the response was half-maximal at 0.0222 ± 0.00146 µM (EC50) and the Emax – broadly, the size of the effect at its maximum, as opposed to the concentration needed – came out at 106 ± 2.85%. Moreover, at μ-opioid receptor, the EC50 is 0.00276 ± 0.0005 µM and the Emax came out at 14 ± 0.58%.

For `CN1CC[C@]23C[C@@]4(CC[C@@]2(O)[C@H]1Cc1ccc(O)cc13)C(=O)NC(=O)N4CC1CC1` [Compound 66, (4bR,4′S,8aS,9R)-3′-(cyclopropylmethyl)-3,8a-dihydroxy-11-methyl-5,7,8,8a,9,10-hexahydrospiro[9,4b-(epiminoethano)phenanthren-6,4′-imidazolidine]-2′,5′-dione], the EC50 at κ opioid receptor stood at 4.65 ± 0.302 µM; on μ-opioid receptor it was 0.076 ± 0.00231 µM. For the same molecule, the values for the Emax on κ opioid receptor and on μ-opioid receptor were 103 ± 7.09% and 98 ± 1.15%, respectively.

As to `COc1ccc2c(c1)[C@]13CCN(CC(F)F)[C@H](C2)[C@]1(O)CC[C@@]1(C3)NC(=O)NC1=O` [Compound 19, (4bR,4′S,8aS,9R)-11-(2,2-difluoroethyl)-8a-hydroxy-3-methoxy-5,7,8,8a,9,10-hexahydrospiro[9,4b-(epiminoethano)phenanthrene-6,4′-imidazolidine]-2′,5′-dione], on κ opioid receptor, the EC50 is above 20 µM and the Emax turned out to be 52%. At μ-opioid receptor, the concentration giving a half-maximal response (EC50) was above 20 µM and the Emax came out at 1%.

Take `O=C1NC(=O)[C@@]2(CC[C@@]3(O)[C@H]4Cc5ccc(O)cc5[C@@]3(CCN4CC3CC3)C2)N1CC1CC1` [Compound 65, (4S,4b′R,8a′S,9′R)-3,11′-bis(cyclopropylmethyl)-3′,8a′-dihydroxy-8′,8a′,9′,10′-tetrahydro-5′H,7′H-spiro[imidazolidine-4,6′-[9,4b](epiminoethano)phenantrene]-2,5-dione]: at κ opioid receptor, the response was half-maximal at 0.0364 ± 0.00708 µM (EC50) and the Emax was 92.3 ± 1.45%. Besides, on μ-opioid receptor, the EC50 was above 20 µM and the Emax turned out to be 2%.

On to `O=C1NC(=O)[C@@]2(CC[C@@]3(O)[C@H]4Cc5ccc(O)cc5[C@@]3(CCN4CCF)C2)N1` [Compound 30], for which the EC50 was 0.0382 ± 0.012 µM on κ opioid receptor and 0.102 ± 0.0302 µM at μ-opioid receptor. Besides, the Emax at κ opioid receptor was determined as 99.7 ± 1.67%; at μ-opioid receptor it was 56.7 ± 4.33%.

`COc1ccc2c(c1)[C@]13CCN(CC=C(C)C)[C@H](C2)[C@]1(O)CC[C@@]1(C3)NC(=O)NC1=O` [Compound 21, (4bR,4′S,8aS,9R)-8a-hydroxy-3-methoxy-11-(3-methylbut-2-en-1-yl)-5,7,8,8a,9,10-hexahydrospiro[9,4b-(epiminoethano)phenanthrene-6,4′-imidazolidine]-2′,5′-dione]: at κ opioid receptor, the EC50 was above 20 µM and the Emax is -1%. For the same molecule, at μ-opioid receptor, the EC50 was above 20 µM and the Emax came out at 5.5%.

Regarding `COc1ccc2c(c1)[C@]13CCN(CCc4ccccc4)[C@H](C2)[C@]1(O)CC[C@@]1(C3)NC(=O)NC1=O` [Compound 20, (4bR,4′S,8aS,9R)-8a-hydroxy-3-methoxy-11-phenethyl-5,7,8,8a,9,10-hexahydrospiro[9,4b-(epiminoethano)phenanthrene-6,4′-imidazolidine]-2′,5′-dione], at κ opioid receptor, the EC50 was above 20 µM and the Emax stood at 75.7 ± 11.5%. Besides, on μ-opioid receptor, the EC50 stood at 0.664 ± 0.113 µM and the Emax is 105 ± 1.23%.

`O=C1NC(=O)[C@@]2(CC[C@@]3(O)[C@H]4Cc5ccc(O)cc5[C@@]3(CCN4CC3CC3)C2)N1Cc1ccccc1` [Compound 67, (4bR,4′S,8aS,9R)-3′-benzyl-11-(cyclopropylmethyl)-3,8a-dihydroxy-5,7,8,8a,9,10-hexahydrospiro[9,4b-(epiminoethano)phenanthrene-6,4′-imidazolidine]-2′,5′-dione]: the EC50 on κ opioid receptor was 0.0284 ± 0.00848 µM; at μ-opioid receptor, 0.00938 ± 0.00076 µM. For the same molecule, the Emax on κ opioid receptor worked out at 115 ± 4.84%; on μ-opioid receptor it was 20%.

On to `COc1ccc2c(c1)[C@]13CCN(CC4CCCCC4)[C@H](C2)[C@]1(O)CC[C@@]1(C3)NC(=O)NC1=O` [Compound 23, (4bR,4′S,8aS,9R)-11-(cyclohexylmethyl)-8a-hydroxy-3-methoxy-5,7,8,8a,9,10-hexahydrospiro[9,4b-(epiminoethano)phenanthrene-6,4′-imidazolidine]-2′,5′-dione], for which, on κ opioid receptor, the concentration giving a half-maximal response (EC50) is above 20 µM and the Emax came to 98 ± 8.89%. Moreover, at μ-opioid receptor, the EC50 was above 20 µM and the Emax was 11%.

With `CCN1C(=O)N[C@]2(CC[C@@]3(O)[C@H]4Cc5ccc(OC)cc5[C@@]3(CCN4CC)C2)C1=O` [Compound 16, (4bR,4′S,8aS,9R)-1′,11-diethyl-8a-hydroxy-3-methoxy-5,7,8,8a,9,10-hexahydrospiro[9,4b-(epiminoethano)phenanthrene-6,4′-imidazolidine]-2′,5′-dione], the EC50 on κ opioid receptor and on μ-opioid receptor was above 20 µM each time. The results for the Emax on κ opioid receptor and at μ-opioid receptor were 50 ± 1% and 8.5%, respectively.

As for `COc1ccc2c(c1)[C@]13CCN(CCC(F)(F)F)[C@H](C2)[C@]1(O)CC[C@@]1(C3)NC(=O)NC1=O` [Compound 17, (4bR,4′S,8aS,9R)-8a-hydroxy-3-methoxy-11-(3,3,3-trifluoropropyl)-5,7,8,8a,9,10-hexahydrospiro[9,4b-(epiminoethano)phenanthrene-6,4′-imidazolidine]-2′,5′-dione], at κ opioid receptor, the EC50 is above 20 µM and the Emax amounted to 83.7 ± 6.69%. Also, on μ-opioid receptor, the EC50 was above 20 µM and the Emax amounted to 18.5 ± 6.14%.

For the molecule `CCN1C(=O)NC(=O)[C@@]12CC[C@@]1(O)[C@H]3Cc4ccc(O)cc4[C@@]1(CCN3C)C2` [Compound 69, (4S,4b′R,8a′S,9′R)-3-ethyl-3′,8a′-dihydroxy-11′-methyl-8′,8a′,9′,10′-tetrahydro-5′H,7′H-spiro[imidazolidine-4,6′-[9,4b](epiminoethano)phenantrene]-2,5-dione], at κ opioid receptor, the EC50 amounted to 0.866 ± 0.0946 µM and the Emax stood at 110 ± 8.5%. At μ-opioid receptor, the response was half-maximal at 0.0436 ± 0.00297 µM (EC50) and the Emax came to 97.3 ± 1.45%.

In the case of `O=C1N[C@]2(CC[C@@]3(O)[C@H]4Cc5ccc(O)cc5[C@@]3(CCN4CC3CC3)C2)C(=O)N1Cc1ccc(O)cc1` [Compound 47, (4S,4b′R,8a′S,9′R)-11′-(cyclopropylmethyl)-3′,8a′-dihydroxy-1-(4-hydroxybenzyl)-8′,8a′,9′,10′-tetrahydro-5′H,7′H-spiro[imidazolidine-4,6′-[9,4b](epiminoethano)-phenantrene]-2,5-dione], at κ opioid receptor, the EC50 turned out to be 0.00121 ± 0.00011 µM and the Emax was determined as 104 ± 3.67%. Moreover, at μ-opioid receptor, the EC50 was 0.00466 ± 0.00089 µM and the Emax was determined as 49 ± 1.53%.

Source of the values: US8987287B2, “Spirocyclic morphinans and their use” (Purdue Pharma L.P., priority 2012, dated 2015).
